Source: patent publication US8883856B2, “Compositions and methods for the treatment of inflammatory diseases using topoisomerase inhibitors” (priority 2000, dated 2014)
Read-outs that look alike come from different tables or passages of the source.

Columns and labels:
neutrophils = experiment: Cytoplasmic DNA fragmentation in neutrophils (Cell death detection ELISA); type: cell-based, human
Excerpt: (§1) The inflammation associated with many forms of arthritis is thought to arise from the presence of large numbers of immune cells, such as neutrophils, in the synovial joints of humans. The extended inflammation associated with crystal induced arthritis arises from the interaction of neutrophils with crystals in the synovial joint. One reason the extended duration of the inflammation in this disease may be due to the inhibition of neutrophil apoptosis by crystals. This inhibition may result in the neutrophils remaining in the joint for extended periods. Compounds that overcome this crystal induced suppression of neutrophil apoptosis therefore allow the more rapid clearance of these cells from the joint with the appropriate abatement of inflammation. The process of apoptosis involves the endonuclease driven cleavage of DNA into fragments which may be visualized as a ladder of bands in an agarose gel electrophoresis experiment. Other assays that may be used include caspase 3 quantitation or measurements of cytoplasmic DNA concentration. […] Agents that inhibit caspase activation levels or reduce cytoplasmic DNA are pro-survival (potentially inflammatory) and agents that promote are pro-apoptotic and anti-inflammatory. The use of these methods and their role in neutrophil affected inflammation is described in detail in Tudan et al. J Rheumatol. 27 p 2463-72. 2000.
Methods: Agarose gel banding/laddering of 180 base pairs: Neutrophils were separated from fresh human blood by standard methods (dextran sedimentation and ficoll paque centrifugation) and suspended in buffer at a concentration of 1×10^6 cells/ml. The cells were then incubated with crystals of calcium pyrophosphate dihydrate (CPPD) for 1 hours at 37° C. The cells were then incubated with or without camptothecin (0.1 uM) for 4 hours at 37° C. Neutrophil aliquots (1×10^6 cells) from different conditions were resuspended in 480 μl of lysis buffer (0.6% SDS, 10 mM Tris, 1 mM EDTA (pH 7.0)) and after vigorous mixing were allowed to sit on ice for 20 min after addition of 120 μl of 5M NaCl. In caspase 3 and DNA fragmentation assays a milder detergent (Triton) was used to lyse only the plasma membrane of the cells so that cytoplasmic contents (caspase 3 or DNA fragments) could be assayed. Samples were sedimented at 14,000 rpm at 4° C. for 20 min. The pellet was dried and resuspended in phenol:chloroform. Four hundred fifty μl of the upper phase was added to a new tube, which was then charged with 950 μl of […] and held at −20° C. for 10 min. The DNA was sedimented at 14,000 rpm (4° C.) and carefully washed in 75% ethanol without disturbing the pellet. The DNA was dried at 37° C. and then resuspended in 20 μl sample buffer (50% TBE with 1 μl of 1 ng/ml RNase A (Pharmacia)). […]

rat carotid artery = type: in vivo; settings: for inhibition of luminal narrowing / inhibition of intimal hyperplasia: perivascular
Excerpt: In this model of restenosis, a balloon catheter is used to induce damage to the lumen of carotid arteries in rats. This damage causes extensive intimal hyperplasia and luminal narrowing, characteristic of restenosis. To determine the effect of drugs as antirestenosis agents, a polymeric dosage form of a drug is applied to the outside of the artery (perivascular application).
Wistar rats weighing 400 g to 500 g were anesthetized with halothane. A vertical incision was made over the trachea and the left carotid artery was exposed. Two ligatures were placed around the external carotid artery and an arteriotomy was made between them. A 2 French Fogarty balloon catheter was introduced into the external carotid artery and pushed into the left common carotid artery and the balloon was inflated with saline. The catheter was passed up and down the entire length of the carotid artery three times to stretch the vessel and denude the endothelium. The catheter was removed and the ligatures were tied off on the external carotid artery. […] The wound was then closed and the animals recovered. After 14 days, the rats were sacrificed and pressure perfused at 100 mmHg with 10% buffered formaldehyde. Both carotid arteries were harvested and processed for histology. Serial cross-sections were cut every 2 mm within and outside the implant in the injured left carotid artery and at corresponding levels in the control right carotid artery. Sections were stained with hematoxylin-and-eosin and Movat's stains and digitized for computer assisted morphometric analysis to quantify luminal narrowing and intimal hyperplasia.

caspase 3 = experiment: Caspase 3 activation in neutrophils (caspACE assay system); type: cell-based, human
Excerpt: as §1
Methods: Agarose gel banding/laddering of 180 base pairs: Neutrophils were separated from fresh human blood by standard methods (dextran sedimentation and ficoll paque centrifugation) and suspended in buffer at a concentration of 1×10^6 cells/ml. The cells were then incubated with crystals of calcium pyrophosphate dihydrate (CPPD) for 1 hours at 37° C. The cells were then incubated with or without camptothecin (0.1 uM) for 4 hours at 37° C. Neutrophil aliquots (1×10^6 cells) from different conditions were resuspended in 480 μl of lysis buffer (0.6% SDS, 10 mM Tris, 1 mM EDTA (pH 7.0)) and after vigorous mixing were allowed to sit on ice for 20 min after addition of 120 μl of 5M NaCl. In caspase 3 and DNA fragmentation assays a milder detergent (Triton) was used to lyse only the plasma membrane of the cells so that cytoplasmic contents (caspase 3 or DNA fragments) could be assayed. Samples were sedimented at 14,000 rpm at 4° C. for 20 min. The pellet was dried and resuspended in phenol:chloroform. Four hundred fifty μl of the upper phase was added to a new tube, which was then charged with 950 μl of […] and held at −20° C. for 10 min. The DNA was sedimented at 14,000 rpm (4° C.) and carefully washed in 75% ethanol without disturbing the pellet. The DNA was dried at 37° C. and then resuspended in 20 μl sample buffer (50% TBE with 1 μl of 1 ng/ml RNase A (Pharmacia)). The samples were vortexed and allowed to stand at 37° C. for 10 min. Five μl of loading dye (20% Ficoll Paque (Pharmacia), 0.1% bromophenol blue, 0.1% xylene cyanole) was added. Electrophoresis was carried out in 2% agarose at 80 mA, and the gel was then stained with ethidium bromide (Pharmacia) and photographed under U.V. illumination.
Caspase 3 activation was assayed using a commercial kit for this enzyme (caspACE assay system, Promega Scientific) and cyotplasmic DNA was assayed using a commercial kit (Cell death detection ELISA-Boehringer—Mannheim).

[1] = test system: chorioallantoic membrane of the chick embryo; experiment: Angiogenesis in the chick chorioallantoic membrane (CAM assay); type: in vivo; settings: for number of eggs (CAM's) with antiangiogenic activity None (score 0) / number of eggs (CAM's) with antiangiogenic activity Partial (score 1-2) / number of eggs (CAM's) with antiangiogenic activity Maximal (score 3): 48 hours
Excerpt: Sheets of sterile waxed paper were placed onto the window that was created in the air space and were used to prevent contamination and dehydration of the egg contents. These sheets, measuring 4 cm×4 cm, were sterilized by spraying them with 70% ethanol and allowing them to dry in the laminar flow hood. […] Using 70% ethanol and Kimwipes, the entire eggshell was wiped down to help clean and sanitize the outside of the egg. Inside a laminar flow hood, the egg was held with the blunt side up and a hole was made in the blunt end of the egg by carefully cracking the shell with the end of forceps. The shell remnants were gently removed with forceps to form a hole in the blunt end. This circular hole was made as large as 2 to 3 cm in diameter without damaging the inner membrane. Once the hole was created in the shell, the inner shell membrane (which houses the egg contents) was gently torn and removed using the forceps, taking care not to damage the chorioallantoic membrane (CAM) (which houses the yolk and developing chick embryo). The hole was then covered with the sheet of sterilized parafilm wax paper by gently stretching the parafilm and then placing it around the hole. The egg was then placed in the egg rack in the incubator (37° C.) and positioned in such a way as to prevent rotation. After 6 days each egg was removed one by one from the incubator (blunt side up), and the parafilm covering the window was removed for direct access to the CAM, which originates from the hind gut of the embryo. The drug-loaded polymer was placed onto the growing capillary bed of the CAM. The egg contents were then resealed with the parafilm sheet and placed back into the 37° C. incubator. […] The values of the avascular scale describe the following: […]

[2] = summary over all concentrations tested in PCL or PCL-MePEG pellets

| SMILES | cytoplasmic DNA fragments in neutrophils (neutrophils) | caspase 3 activation in neutrophils (caspase 3) | number of eggs (CAM's) with antiangiogenic activity Partial (score 1-2) ([1]; 0.5% w/w in PCL pellet) | number of eggs (CAM's) with antiangiogenic activity None (score 0) ([1]; 1.0% w/w in PCL pellet) | number of eggs (CAM's) with antiangiogenic activity Partial (score 1-2) ([1]; 1.0% w/w in PCL pellet) | number of eggs (CAM's) with antiangiogenic activity Partial (score 1-2) ([1]; 5.0% w/w in PCL pellet) | inhibition of angiogenesis in the CAM, in words [1, 2] | number of eggs (CAM's) with antiangiogenic activity None (score 0) ([1]; 4.0% w/w in PCL pellet) | number of eggs (CAM's) with antiangiogenic activity Partial (score 1-2) ([1]; 4.0% w/w in PCL pellet) | necrosis or toxicity after perivascular application (rat carotid artery; rat, in vivo) | number of eggs (CAM's) with antiangiogenic activity Partial (score 1-2) ([1]; 2.0% w/w in PCL pellet) | further results |
| --- | --- | --- | --- | --- | --- | --- | --- | --- | --- | --- | --- | --- |
| CC[C@@]1(O)C(=O)OCc2c1cc1n(c2=O)Cc2cc3ccccc3nc2-1 [camptothecin] | increased the cytoplasmic levels of DNA fragments | induced high levels of caspase 3 activation | 12 | 4 | 6 | 20 | extensive inhibition of angiogenesis |  |  |  |  | inhibition of luminal narrowing (rat carotid artery; 0.2% (w/w to EVA) film): more than 50%; inhibition of intimal hyperplasia (rat carotid artery; 0.2%, 1% and 10% loaded EVA films, 14 days): partial inhibition; inhibition of intimal hyperplasia (rat carotid artery; 20% loaded EVA film, 14 days): Complete inhibition; luminal narrowing (rat carotid artery; all concentrations above 0.2% in EVA film): reduced the luminal narrowing to almost zero; number of eggs (CAM's) with antiangiogenic activity None (score 0) ([1]; 0.1% w/w in PCL pellet): 7; number of eggs (CAM's) with antiangiogenic activity Partial (score 1-2) ([1]; 0.1% w/w in PCL pellet): 1; inhibition of angiogenesis in the CAM, in words ([1]; 0.5% (w/w to PCL)): strong evidence of inhibition of angiogenesis; number of eggs (CAM's) with antiangiogenic activity Maximal (score 3) ([1]; 0.5% w/w in PCL pellet): 2; number of eggs (CAM's) with antiangiogenic activity None (score 0) ([1]; 0.5% w/w in PCL pellet): 8; number of CAM's with full or partial inhibition ([1]; 5% (w/w to PCL)): 29; number of eggs (CAM's) with antiangiogenic activity Maximal (score 3) ([1]; 5.0% w/w in PCL pellet): 9; number of eggs (CAM's) with antiangiogenic activity None (score 0) ([1]; 5.0% w/w in PCL pellet): 3 |
| CC1=CC(=O)c2c(O)cccc2C1=O [plumbagin] |  |  |  |  | Necrosis |  | partial inhibition of angiogenesis in a number of CAM's |  |  |  |  | necrosis or toxicity after perivascular application (rat carotid artery; applied to the perivascular side of the rat carotid artery): excessive toxicities; generalized cytotoxicity in the CAM ([1]; in vivo): some evidence of necrosis in non-capillary cells and membrane thinning |
| CC1(C)CCC2=C(O1)c1ccccc1C(=O)C2=O [beta-lapachone] |  | induced an increase in the activation of caspase 3 levels |  | 4 | 2 |  | inhibited angiogenesis in almost all CAM's | 4 | 11 |  |  | number of eggs (CAM's) with antiangiogenic activity Maximal (score 3) ([1]; 4.0% w/w in PCL pellet): 6; inhibition of angiogenesis in the CAM, in words ([1]; 6% w/w in PCL): partial to full inhibition of angiogenesis; number of eggs (CAM's) with antiangiogenic activity Partial (score 1-2) ([1]; 60% in PCL pellet as printed): 10 |
| COc1cc([C@@H]2c3cc4c(cc3[C@@H](O[C@@H]3O[C@@H]5CO[C@@H](C)O[C@H]5[C@H](O)[C@H]3O)[C@H]3COC(=O)[C@H]23)OCO4)cc(OC)c1O [etoposide] | significant increase in cytoplasmic DNA | induced an increase in the activation of caspase 3 levels |  |  |  |  | inhibited angiogenesis in almost all CAM's treated | 2 | 5 | did not induce any necrosis or toxicity in surrounding tissue |  | inhibition of intimal hyperplasia (rat carotid artery; both 1% and 5% loaded EVA films): approximately 75%; number of eggs (CAM's) with antiangiogenic activity Partial (score 1-2) ([1]; 8.0% w/w in PCL pellet): 5; number of eggs (CAM's) with antiangiogenic activity Maximal (score 3) ([1]; 15.0% w/w in PCL pellet): 4; number of eggs (CAM's) with antiangiogenic activity Partial (score 1-2) ([1]; 15.0% w/w in PCL pellet): 9; number of CAM's showing full inhibition ([1]; all etoposide pellets (4%, 8%, 15% PCL; 10% PCL-MePEG)): five |
| CC1=CC(=O)c2ccccc2C1=O [menadione] |  |  |  |  |  |  | partial inhibition of angiogenesis in a number of CAM's |  |  |  | Necrosis | generalized cytotoxicity in the CAM ([1]; drug-loaded PCL pellets): some evidence of necrosis in non-capillary cells and membrane thinning |
| COc1cccc2c1C(=O)c1c(O)c3c(c(O)c1C2=O)C[C@@](O)(C(=O)CO)C[C@@H]3O[C@H]1C[C@H](N)[C@H](O)[C@H](C)O1 [doxorubicin] | significant increase in cytoplasmic DNA | induced an increase in the activation of caspase 3 levels | 5 |  |  | 3 | partially inhibited angiogenesis in all but one CAM |  | 4 | did not induce any necrosis or toxicity in surrounding tissue | 20 | inhibition of intimal hyperplasia (rat carotid artery; 2% loading (w/w to EVA) film): completely inhibited; inhibition of luminal narrowing (rat carotid artery; 2% loading (w/w to EVA) film): completely inhibited; number of eggs (CAM's) with antiangiogenic activity None (score 0) ([1]; 2.0% w/w in PCL pellet): 1; inhibition of angiogenesis in the CAM, in words ([1]; 5% (w/w to PCL)): partial to full inhibition of angiogenesis |
